pEC50: −log10 of the molar value.
Molecular target: T1, human GPR119 (Homo sapiens, UniProt Q8TDV5)
T1 construct: expressed in transfected cells; host or cells: HEK293
T1 sequence (Q8TDV5 1-335): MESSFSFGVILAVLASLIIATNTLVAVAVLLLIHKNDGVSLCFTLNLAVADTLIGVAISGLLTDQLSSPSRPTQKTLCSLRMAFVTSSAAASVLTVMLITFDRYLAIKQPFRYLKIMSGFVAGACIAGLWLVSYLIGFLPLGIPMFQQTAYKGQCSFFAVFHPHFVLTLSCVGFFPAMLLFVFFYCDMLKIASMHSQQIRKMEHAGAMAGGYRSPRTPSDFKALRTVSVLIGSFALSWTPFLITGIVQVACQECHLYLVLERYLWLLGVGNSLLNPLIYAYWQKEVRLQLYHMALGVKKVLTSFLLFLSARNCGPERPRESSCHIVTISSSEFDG
Experiment: cAMP assay (LANCE cAMP kit), activation of GPR119
Type: cell-based
Conditions: HEK293 cells expressing human GPR119, 30 minutes incubation
Procedure: The ability of illustrative compounds of the invention to activate GPR119 and stimulate increases in cAMP levels was determined using the LANCE™ cAMP kit (Perkin Elmer). HEK293 cells expressing human GPR119 were maintained in culture flasks at 37° C./5% CO2 in DMEM containing 10% fetal bovine serum, 100 U/ml Pen/Strep, and 0.5 mg/ml geneticin. The media was changed to Optimem and cells were incubated for about 15 hours at 37° C./5% CO2. The Optimem was then aspirated and the cells were removed from the flasks using room temperature Hank's balanced saline solution (HBSS). The cells were pelleted using centrifugation (1300 rpm, 7 minutes, room temperature), then resuspended in stimulation buffer (HBSS, 0.1% BSA, 5 mM HEPES, 15 μM RO-20) at 2.5×10^6 cells/mL. Alexa Fluor 647-anti cAMP antibody (1:100) was then added to the cell suspension and incubated for 30 minutes. A representative Pyrimidine Ether Derivative (6 μl at 2× concentration) in stimulation buffer containing 2% DMSO were then added to white 384 well Matrix plates. Cell suspension mix (6 μl) was added to each well and incubated with the Pyrimidine Ether Derivative for 30 minutes. A cAMP standard curve was also created in each assay according to the kit protocol. Standard concentrations of cAMP in stimulation buffer (6 μl) were added to white 384 well plates. Subsequently, 6 μl of 1:100 anti-cAMP antibody was added to each well. Following the 30 minute incubation period, 12 μl of detection mix (included in kit) was added to all wells and incubated for 2-3 hours at room temperature. Fluorescence was detected on the plates using an Envision instrument. The level of cAMP in each well is determined by extrapolation from the cAMP standard curve.

CCS(=O)(=O)N1CCC(Oc2ncnc(OC3C4COCC3CN(C(=O)OC3(C)CC3)C4)c2F)CC1 (stereo not drawn) [Compound 12] and CCCS(=O)(=O)N1CCC(Oc2ncnc(OC3C4COCC3CN(C(=O)OC3(C)CC3)C4)c2F)CC1 (stereo not drawn) [Compound 11] cannot be ordered by pEC50: > 7.00 for the first, > 7.00 for the second.

First: CC1(OC(=O)N2CC3COCC(C2)C3Oc2ncnc(OC3CCN(S(C)(=O)=O)CC3)c2F)CC1 (stereo not drawn) [Compound 2]
Second: CC(C)S(=O)(=O)N1CCC(Oc2ncnc(OC3C4COCC3CN(C(=O)OC3(C)CC3)C4)c2F)CC1 (stereo not drawn) [Compound 5]
The pEC50 of the first is lower: 6.70 to 7.00 for the first, > 7.00 for the second.

First: CS(=O)(=O)N1CCC(Oc2ncnc(OC3C4COCC3CN(c3ncc(Cl)cn3)C4)c2F)CC1 (stereo not drawn) [Compound 10]
Second: CC1(OC(=O)N2CC3COCC(C2)C3Oc2ncnc(OC3CCN(S(=O)(=O)C4CC4)CC3)c2F)CC1 (stereo not drawn) [Compound 4]
The pEC50 of the first is higher: > 7.00 for the first, 6.70 to 7.00 for the second.

First: CC1(OC(=O)N2CC3COCC(C2)C3Oc2ncnc(OC3CCN(S(=O)(=O)C4CCCC4)CC3)c2F)CC1 (stereo not drawn) [Compound 7]
Second: CC1(OC(=O)N2CC3COCC(C2)C3Oc2ncnc(OC3CCN(S(=O)(=O)C(F)(F)F)CC3)c2F)CC1 (stereo not drawn) [Compound 6]
The pEC50 of the first is higher: 6.70 to 7.00 for the first, 6.00 to 6.30 for the second. The first is the more potent here.

CC(C)(C)OC(=O)N1CCC(Oc2ncnc(OC3C4COCC3CN(C(=O)OC3(C)CC3)C4)c2F)CC1 (stereo not drawn) [Compound 1] and CC(C)C(=O)N1CCC(Oc2ncnc(OC3C4COCC3CN(C(=O)OC3(C)CC3)C4)c2F)CC1 (stereo not drawn) [Compound 9] fall in the same range of pEC50: 6.00 to 6.30 for the first, 6.00 to 6.30 for the second.

First: COCCS(=O)(=O)N1CCC(Oc2ncnc(OC3C4COCC3CN(C(=O)OC3(C)CC3)C4)c2F)CC1 (stereo not drawn) [Compound 8]
Second: CC1(OC(=O)N2CC3COCC(C2)C3Oc2ncnc(OC3CCN(S(=O)(=O)CCC(F)(F)F)CC3)c2F)CC1 (stereo not drawn) [Compound 3]
The pEC50 of the first is lower: 6.70 to 7.00 for the first, > 7.00 for the second.

Reference: patent publication US8912206B2, “Pyrimidine ether derivatives and methods of use thereof” (Merck Sharp & Dohme Corp., priority 2009, dated 2014)
